Results from patent publication US20250019377A1 (JACOBIO PHARMACEUTICALS CO., LTD, priority 2021, published 2025).
pIC50: −log10 of the molar value. Read-outs that look alike come from different tables or passages of the source.

Assays:
K-Ras G13D [1] = target: T1, K-Ras G13D (Homo sapiens, UniProt P01116, G13D); experiment: biochemical
K-Ras WT [2] = target: T2, K-Ras WT (Homo sapiens, UniProt P01116); experiment: SOS1 catalyzed nucleotide exchange assay (GDP form K-Ras), K-Ras WT; settings: read-out: K-Ras WT GDP Biochemical Activity (IC50)
K-Ras G13D [3] = target: T1, K-Ras G13D; experiment: biochemical; remark: listed apart in the source
K-Ras G12V [4] = target: T3, K-Ras G12V (Homo sapiens, UniProt P01116, G12V); experiment: SOS1 catalyzed nucleotide exchange assay (GDP form K-Ras), K-Ras G12V; settings: read-out: K-Ras G12V GDP Biochemical Activity (IC50)
K-Ras G12V [5] = target: T3, K-Ras G12V; experiment: biochemical
AGS cells (K-Ras G12D) = experiment: 2D cell growth inhibition assay, AGS; type: cell-based; settings: 6 days, absolute IC50
[6] = tested on: p-ERK in SW620 cells (K-Ras G12V); experiment: Phospho-ERK1/2(THR202/TYR204) HTRF assay, SW620; type: cell-based; settings: 2 hours incubation
[7] = tested on: p-ERK in AGS cells (K-Ras G12D); experiment: Phospho-ERK1/2(THR202/TYR204) HTRF assay, AGS; type: cell-based; settings: 2 hours incubation
[8] = tested on: AsPC-1 cells (K-Ras G12D); experiment: 2D cell growth inhibition assay, AsPC-1; type: cell-based; settings: AsPC-1, K-Ras G12D, 6 days, absolute IC50
K-Ras WT [9] = target: T2, K-Ras WT; experiment: biochemical
SW620 cells (K-Ras G12V) = experiment: 2D cell growth inhibition assay, SW620; type: cell-based; settings: 6 days, absolute IC50
[10] = tested on: NCI-H747 cells (K-Ras G13D)
[11] = tested on: p-ERK in NCI-H747 cells (K-Ras G13D)

T3 sequence (P01116 1-169 isoform P01116-2 G12V): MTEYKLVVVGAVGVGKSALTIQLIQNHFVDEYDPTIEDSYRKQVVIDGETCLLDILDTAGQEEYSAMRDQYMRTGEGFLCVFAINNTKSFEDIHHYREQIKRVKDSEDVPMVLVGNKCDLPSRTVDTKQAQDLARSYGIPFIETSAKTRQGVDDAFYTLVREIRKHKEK
T1 sequence (P01116 1-169 isoform P01116-2 G13D): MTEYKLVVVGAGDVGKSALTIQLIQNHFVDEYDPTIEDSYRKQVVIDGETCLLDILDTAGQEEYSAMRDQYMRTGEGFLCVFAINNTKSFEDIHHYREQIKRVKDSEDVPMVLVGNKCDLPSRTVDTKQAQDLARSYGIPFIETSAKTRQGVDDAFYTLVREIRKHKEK
T2 sequence (P01116 1-169 isoform P01116-2): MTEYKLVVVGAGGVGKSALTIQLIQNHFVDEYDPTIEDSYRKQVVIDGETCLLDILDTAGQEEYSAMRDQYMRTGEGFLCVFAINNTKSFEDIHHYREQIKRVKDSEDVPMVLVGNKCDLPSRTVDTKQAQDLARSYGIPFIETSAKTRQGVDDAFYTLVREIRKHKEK

SMILES	pIC50 (K-Ras G13D [1])	pIC50 (K-Ras WT [2])	pIC50 (K-Ras G13D [3])	pIC50 (K-Ras G12V [4])	pIC50 (K-Ras G12V [5])	IC50 (AGS cells (K-Ras G12D); Homo sapiens, 144 h) [nM]	IC50 ([6]; Homo sapiens, SW-620, 2 h) [nM]	IC50 ([7]; Homo sapiens, 2 h) [nM]	IC50 ([8]; Homo sapiens, ASPC1, 144 h) [nM]	pIC50 (K-Ras WT [9])	IC50 (SW620 cells (K-Ras G12V); Homo sapiens, SW-620, 144 h) [nM]	IC50 (AGS cells (K-Ras G12D)) [nM]	IC50 [6] [nM]	IC50 [7] [nM]	IC50 [8] [nM]	IC50 (SW620 cells (K-Ras G12V)) [nM]	pIC50 [10]	pIC50 [11]
C#Cc1c(F)ccc2cc(O)cc(-c3ncc4c(N5CCCO[C@H](CC#N)C5)nc(OC[C@@]56CCCN5C[C@H](F)C6)nc4c3F)c12 (single isomer, unassigned)	< 7.00	7.22	< 6.70	7.63	5.68	–	–	–	–	–	–	–	–	–	–	–	–	–
C#Cc1c(F)ccc2cc(O)cc(-c3ncc4c(N5CCOC(C)CC5)nc(OC[C@@]56CCCN5C[C@H](F)C6)nc4c3F)c12 (stereo partly drawn) [Compound 17, 5-ethynyl-6-fluoro-4-(8-fluoro-2-(((2R,7aS)-2-fluorotetrahydro-1H-pyrrolizin-7a(5H)-yl)methoxy)-4-(7-methyl-1,4-oxazepan-4-yl)pyrido[4,3-d]pyrimidin-7-yl)naphthalen-2-ol trifluoroacetic acid]	7.21	–	–	7.57	6.10	–	–	–	–	–	–	–	–	–	–	–	–	–
C#Cc1c(F)ccc2cc(O)cc(-c3ccc4c(N5CCCOCC5)nc(OCC5(CN6CCOCC6)CC5)nc4c3F)c12 [Compound 20, 5-ethynyl-6-fluoro-4-(8-fluoro-2-((1-(morpholinomethyl)cyclopropyl)methoxy)-4-(1,4-oxazepan-4-yl)quinazolin-7-yl)naphthalen-2-ol trifluoroacetic acid]	–	7.90	–	8.06	5.79	203	29.3	53	538	–	139	–	–	–	–	–	6.47	7.55
C#Cc1c(F)ccc2cc(O)cc(-c3ncc4c(N5CCCOCC5)nc(OCC56CCCN5CCC6)nc4c3F)c12 [Compound 21, 5-ethynyl-6-fluoro-4-(8-fluoro-4-(1,4-oxazepan-4-yl)-2-((tetrahydro-1H-pyrrolizin-7a(5H)-yl)methoxy)pyrido[4,3-d]pyrimidin-7-yl)naphthalen-2-ol trifluoroacetic acid]	–	–	–	–	–	51.9	135	10.2	1350	–	61.4	–	–	–	–	–	6.90	7.22
C#Cc1c(F)ccc2cc(O)cc(-c3ncc4c(N5CC(C)COCC5C)nc(OC[C@@]56CCCN5C[C@H](F)C6)nc4c3F)c12 (stereo partly drawn) [Compound 27, 4-(4-(3,6-dimethyl-1,4-oxazepan-4-yl)-8-fluoro-2-(((2R,7aS)-2-fluorotetrahydro-1H-pyrrolizin-7a(5H)-yl)methoxy)pyrido[4,3-d]pyrimidin-7-yl)-5-ethynyl-6-fluoronaphthalen-2-ol]	–	8.02	–	8.09	6.14	216	144	65.1	904	6.63	90.7	–	–	–	–	–	–	–
C#Cc1c(F)ccc2cc(O)cc(-c3c(C(F)(F)F)cc4c(N5CCCOCC5)nc(OC[C@@]56CCCN5C[C@H](F)C6)nc4c3F)c12 [Compound 37, 5-ethynyl-6-fluoro-4-(8-fluoro-2-(((2R,7aS)-2-fluorotetrahydro-1H-pyrrolizin-7a(5H)-yl)methoxy)-4-(1,4-oxazepan-4-yl)-6-(trifluoromethyl)quinazolin-7-yl)naphthalen-2-ol]	< 7.00	8.00	–	8.17	6.83	278	92	49.2	629	6.64	330	–	–	–	–	–	–	–
C#Cc1c(F)ccc2cc(O)cc(-c3ncc4c(N5CCOCC(C#N)C5)nc(OC[C@@]56CCCN5C[C@H](F)C6)nc4c3F)c12 (stereo partly drawn) [Compound 88]	< 7.00	7.55	–	7.87	5.55	–	–	–	–	–	–	–	–	–	–	–	–	–
C#Cc1c(F)ccc2cc(O)cc(-c3ncc4c(N5CCCOCC5)nc(OCC5CNCCN5C)nc4c3F)c12 (stereo not drawn) [Compound 96, 5-ethynyl-6-fluoro-4-(8-fluoro-2-((1-methyl-piperazin-2-yl)methoxy)-4-(1,4-oxazepan-4-yl)pyrido[4,3-d]pyrimidin-7-yl)naph-thalen-2-ol]	< 7.00	7.18	6.94	7.73	5.56	–	–	–	–	–	–	–	–	–	–	–	–	–

Other lines, results leading:

pIC50 (K-Ras G13D [1])	pIC50 (K-Ras WT [2])	pIC50 (K-Ras G13D [3])	pIC50 (K-Ras G12V [4])	pIC50 (K-Ras G12V [5])	IC50 (AGS cells (K-Ras G12D); Homo sapiens, 144 h) [nM]	IC50 ([6]; Homo sapiens, SW-620, 2 h) [nM]	IC50 ([7]; Homo sapiens, 2 h) [nM]	IC50 ([8]; Homo sapiens, ASPC1, 144 h) [nM]	pIC50 (K-Ras WT [9])	IC50 (SW620 cells (K-Ras G12V); Homo sapiens, SW-620, 144 h) [nM]	IC50 (AGS cells (K-Ras G12D)) [nM]	IC50 [6] [nM]	IC50 [7] [nM]	IC50 [8] [nM]	IC50 (SW620 cells (K-Ras G12V)) [nM]	pIC50 [10]	pIC50 [11]	SMILES
–	9.12	–	9.18	7.45	6.35	5.82	1.1	43	7.85	5.48	–	–	–	–	–	–	–	C#Cc1c(F)ccc2cc(O)cc(-c3ncc4c(N5CCOC[C@H](C)C5)nc(OC[C@@]56CCCN5C[C@H](F)C6)nc4c3F)c12 (single isomer, unassigned) [Compound 13B]
–	8.85	–	9.06	6.48	30.4	30.1	13.9	465	6.76	59.6	–	–	–	–	–	–	–	C#Cc1c(F)ccc2cc(O)cc(-c3ncc4c(N5CCCO[C@@H](CC#N)C5)nc(OC[C@@]56CCCN5C[C@H](F)C6)nc4c3F)c12 (single isomer, unassigned) [Compound 15B]
–	8.58	–	8.86	7.20	20.6	30	10.4	150	7.15	28.6	–	–	–	–	–	–	–	C#Cc1c(F)ccc2cc(O)cc(-c3ncc4c(N5CCCOCC5)nc(OCC56CCCN5C[C@@](C)(F)C6)nc4c3F)c12 (single isomer, unassigned) [Compound 32A]
–	8.51	–	8.71	7.16	18.6	17.1	12.1	135	7.11	27.9	–	–	–	–	–	–	–	C#Cc1c(F)ccc2cc(O)cc(-c3ncc4c(N5CCCOCC5)nc(OCC56CCCN5C[C@](C)(F)C6)nc4c3F)c12 (single isomer, unassigned) [Compound 32B]
–	8.10	–	8.51	6.46	187	321	83.9	2870	6.40	630	–	–	–	–	–	–	–	C#Cc1c(F)ccc2cc(O)cc(-c3ncc4c(N5CCOC[C@H](O)C5)nc(OC[C@@]56CCCN5C[C@H](F)C6)nc4c3F)c12 (single isomer, unassigned) [Compound 46A]
–	9.02	–	8.90	7.29	20.6	45.7	15	446	7.50	50.1	–	–	–	–	–	–	–	C#Cc1c(F)ccc2cc(O)cc(-c3ncc4c(N5CCOC[C@@H](O)C5)nc(OC[C@@]56CCCN5C[C@H](F)C6)nc4c3F)c12 (single isomer, unassigned) [Compound 46B]
–	7.94	–	8.46	5.43	–	–	–	–	5.52	–	203	19.4	29.1	1100	60.6	–	–	C#Cc1c(F)ccc2cc(O)cc(-c3ncc4c(N5CC6COC(C6)C5)nc(OC[C@@]56CCCN5C[C@H](F)C6)nc4c3F)c12 (single isomer, unassigned) [Compound 84A, 4-(4-((1R,5S)-6-oxa-3-azabicyclo[3.2.1]octan-3-yl)-8-fluoro-2-(((2R,7aS)-2-fluorotetra-hydro-1H-pyrrolizin-7a(5H)-yl)methoxy)pyrido[4,3-d]pyrimidin-7-yl)-5-ethynyl-6-fluoronaphthalen-2-ol or 4-(4-((1S,5R)-6-oxa-3-azabicyclo[3.2.1]octan-3-yl)-8-fluoro-2-(((2R,7aS)-2-fluorotetra-hydro-1H-pyrrolizin-7a(5H)-yl)methoxy)pyrido[4,3-d]pyrimidin-7-yl)-5-ethynyl-6-fluoronaphthalen-2-ol]
–	8.69	–	8.89	7.39	26.2	10.6	6.71	228	7.21	10.5	–	–	–	–	–	–	–	C#Cc1c(F)ccc2cc(O)cc(-c3ncc4c(N5CCCOCC5)nc(OCC56CCCN5CC(C)(F)C6)nc4c3F)c12 (stereo not drawn) [Compound 10, 5-ethynyl-6-fluoro-4-(8-fluoro-2-((2-fluoro-2-methyltetrahydro-1H-pyrrolizin-7a(5H)-yl)methoxy)-4-(1,4-oxazepan-4-yl)pyrido[4,3-d]pyrimidin-7-yl)naphthalen-2-ol]
–	8.59	8.66	8.57	6.53	25.5	95.6	7.7	218	6.71	120	–	–	–	–	–	–	–	C#Cc1c(F)ccc2cc(O)cc(-c3ncc4c(N5CCOCC(C)(F)C5)nc(OC[C@@]56CCCN5C[C@H](F)C6)nc4c3F)c12 (stereo partly drawn) [Compound 101, 5-ethynyl-6-fluoro-4-(8-fluoro-4-(6-fluoro-6-methyl-1,4-oxazepan-4-yl)-2-(((2R,7aS)-2-fluorotetrahydro-1H-pyrrolizin-7a(5H)-yl)methoxy)pyrido[4,3-d]pyrimidin-7-yl)naphthalen-2-ol]
